What was measured:
[1] = xn = mol fraction of the nth substance listed; conditions: 100 kPa, Liquid, x1 = 1; for viscosity: Capillary tube (Ostwald / Ubbelohde) method; for mass density: Vibrating tube method
[2] = 101.33 kPa, Liquid; for viscosity: Capillary tube (Ostwald / Ubbelohde) method; for mass density: Vibrating tube method

CCCCn1cc[n+](C)c1.N#CN=C=[N-] [1-butyl-3-methylimidazolium dicyanamide] + O=C1CCCO1
[1]
Conditions | mass density [kg/m3] | viscosity [mPa·s]
273.15 K | 1075.2 | 95.68
283.15 K | 1068.94 | 55.27
293.15 K | 1062.52 | 35.04
298.15 K | 1059.33 | 28.5
303.15 K | 1056.15 | 23.52
313.15 K | 1049.85 | 16.95
323.15 K | 1043.61 | 12.65

CCCCn1cc[n+](C)c1.N#CN=C=[N-] [1-butyl-3-methylimidazolium dicyanamide]
[2]
Conditions | mass density [kg/m3] | viscosity [mPa·s]
273.15 K | 1075.2 | 95.68
278.15 K | 1072.13 | 71.85
283.15 K | 1068.94 | 55.27
288.15 K | 1065.72 | 43.57
293.15 K | 1062.52 | 35.04
298.15 K | 1059.33 | 28.5
303.15 K | 1056.15 | 23.52
308.15 K | 1052.99 | 19.87
313.15 K | 1049.85 | 16.95
318.15 K | 1046.72 | 14.61
323.15 K | 1043.61 | 12.65
328.15 K | 1040.51 | –
333.15 K | 1037.43 | –

Source: the NIST ThermoML archive (doi:10.1016/j.jct.2016.02.014)
